According to US20230277550A1, “Methods for Treating Respiratory Diseases Characterized by Mucus Hypersecretion” (The Board of Trustees of the Leland Stanford Junior …, priority 2020, published 2023):
Like-named read-outs stand apart in the source and are kept apart here.

How the values were obtained:
[1] = test system: primary human nasal epithelial cells (HNECs); test: Semagacestat dose response on multiciliated cell (MCC) formation in HNEC ALI cultures; format: cell-based
Experimental: Air-Liquid Interface (ALI) cultures were prepared as described in Vladar EK, Nayak JV, Milla CE, Axelrod JD. Airway epithelial homeostasis and planar cell polarity signaling depend on multiciliated cell differentiation. JCI Insight. 2016;1(13);e88027. Human nasal epithelial cells (HNECs) were generated from human sinonasal epithelial brushings or from tissue obtained from patients undergoing endoscopic sinus surgery at Stanford Hospital and cultured as described in Vladar et al.
Cultures were treated with varying doses of semagacestat. DAPT (Abcam) was used ([…]) as a positive control for GSI activity. Cultures were labeled at ALI+21d with anti-acetylated α-tubulin (green) and ECAD (red) antibodies to mark cilia and epithelial junctions.
The ratio was defined as MCC number/total luminal cells. Counting was done on one representative image from 5 culture replicates from a single donor.

[2] = In vivo mouse model, body weight as surrogate of GI toxicity, and mortality; conditions: 1 mg/kg IP, three weeks; days 9, 24 and 30
Experimental: In the second experiment, vehicle and semagacestat were administered once daily for 5 consecutive days per week for three weeks, with a semagacestat dose of 1 mg/kg. An important observed toxicity in multiple GSI clinical trials, including large Alzheimer’s Disease trials, was gastrointestinal toxicity. As a surrogate measure of GI toxicity, we monitored body weight throughout the experiment.
Body weight was measured on Days 1, 9, 24 and 30, and mice were sacrificed on day 31.

[3] = test system: Primary human airway epithelial cells; test: MCC formation by timing of GSI treatment (proliferation, differentiation, continuous); format: cell-based
Experimental: Primary human airway epithelial cells were treated with DAPT and LY45139: i) during proliferation only (ALI-5 to -1d), ii) during differentiation only (ALI+0 to +21d) or iii) continuously during the entire culture duration, followed by labeling at ALI+21d with anti-acetylated α-Tubulin (green) and ECAD (red) antibodies.

[4] = test system: Primary human airway epithelial cells; test: GSI treatment from the apical or basal surface; format: cell-based; conditions: ALI+0 to +21d, apical or basal application
Experimental: Primary human airway epithelial cells were treated with DAPT and LY45139 during differentiation only (ALI+0 to +21d) from either the apical or basal surface, then labeled at ALI+21d with anti-acetylated α-Tubulin (green) and ECAD (red) antibodies. […] Apical treatment eliminates the air-liquid interface, which results in the poor epithelial structure and multiciliated cell differentiation in the untreated cultures, which is partially rescued by GSI treatment.

[5] = test system: HNEC cultures from a CF patient; test: IL-13 induced chronic inflammation model in ALI HNEC cultures; format: cell-based, human; conditions: DAPT 1 um, semagacestat 125 nm, days 14-21
Experimental: Administration of IL-13 to ALI cultures induces goblet cell hyperplasia and is a useful model of chronic inflammation. ALI HNEC cultures were prepared as described in Vladar et al. ALI cultures were treated with and without administration of Il-13 on days 7-14. DAPT (1 um), semagacestat (125 nm) or vehicle control were administered on days 14-21. PFA-fixed cultures were stained for Muc5AC (red; mucin producing secretory cells), Acetylated tubulin (green; MCCs) and E-Cadherin (blue to reveal cell boundaries).
HNEC cultures from a CF patient were treated with IL-13 from ALI+7 to 14 to induce inflammation. […] IL-13 treatment increases the percentage of mucin positive secretory cells and decreases the percentage of MCCs.

CFTR [6] = test: Ussing chamber short circuit current (Isc) assay for CFTR activity; format: cell-based, human; conditions: two wild-type and two CF patient-derived cultures, treated 3x per week for 2 weeks
Experimental: (§1) Cells grown at an air liquid interface were mounted on a holding slider and inserted on an Ussing chamber for electrophysiological short circuit current (Isc) measurements. Solutions in the serosal and mucosal bath were prepared so that a chloride gradient was established between both sides. After stable baseline current recordings were obtained, agonists were added in the following order: amiloride (10 µM) to block sodium channel activity, forskolin (10 µM) to stimulate CFTR, Ivacaftor (10 µM) to potentiate CFTR activity, and CFTRinh-172 (20 µM) to block CFTR current. For each agonist signals were monitored until a plateau in current was noted before adding the next agonist. The delta-Isc in response to CFTRinh-172 was used as our main read out for CFTR-mediated chloride transport.
To assess the effect of GSIs (DAPT, Semagacestat) on CFTR function in cultured epithelia, HNECs from CF patients and non-CF controls were collected and grown at air-liquid interface to maturity (+21d) according to Vladar et al. Cultures were then treated with DAPT, Semagacestat, the CFTR modulator Lumacaftor or vehicle control added to basal media 3x per week for 2 weeks. Filter inserts were then assessed for short circuit current (Isc) against a chloride gradient in Ussing chambers to assess CFTR activity. […]

[7] = test system: Primary healthy and cystic fibrosis airway epithelial cells; test: MCC formation in cystic fibrosis epithelia; format: cell-based, human; conditions: CF patient-derived cultures, ALI+0 to +21d
Experimental: Primary healthy and cystic fibrosis airway epithelial cells were treated with semagacestat (LY45139) during differentiation only (ALI+0 to +21d) and labeled at ALI+21d with anti-acetylated α-Tubulin (green) and ECAD (red) antibodies. […] Restoration of a healthy MCC/total cell ratio is expected to improve mucociliary clearance.

CFTR [8] = test: CFTR current in Ussing chambers, GSI with or without ETI; format: cell-based, human; conditions: cultures from CF patients, GSI plus ETI
Experimental: as §1
We directly measured CFTR activity in cultures from CF patients treated with GSI with or without well-established effective in vitro doses of Trikafta (Elexcaftor/Tezacaftor/Ivacaftor or “ETI”). Veit, G., et al., JCI (2020) 10.1172/jci.insight.139983. Measurements were performed in Ussing chambers. […] In some individual experiments, there appeared to be a synergistic effect in the combination treatment: GSI alone has no effect but the combination treatment produced a greater response than ETI alone. This effect was not consistently seen, but raised the possibility that synergy might be observed with lower ETI doses.
To examine this further, we tested MK04752 in combination with varying doses of ETI (FIG. 28).

[9] = cited from earlier work
[10] = cited from earlier work; remark: listed apart in the source

**Q.** With `CC(C)[C@H](O)C(=O)N[C@@H](C)C(=O)N[C@@H]1C(=O)N(C)CCc2ccccc21` [semagacestat, (2S)-2-hydroxy-3-methyl-N-[(1S)-1-methyl-2-oxo-2-[[(1S)-2,3,4,5-tetrahydro-3-methyl-2-oxo-1H-3-benzazepin-1-yl]amino]ethyl]-butamide] as the compound, how does the “semagacestat concentration at which the percentage of MCCs is at its baseline” value ([1]; HNECs, FIG. 1 dose response) read?
**A.** The value was 15.625 nM.

**Q.** And the “semagacestat concentration at which the percentage of MCCs reaches its maximum” value ([1]; HNECs, FIG. 1 dose response)?
**A.** Its value is “around 125 nM”.

**Q.** And the Toxicity ([1]; HNECs, micromolar doses)?
**A.** The Toxicity was “Toxicity is observed at micromolar doses”.

**Q.** And the “conversion to MCCs” value ([1]; nanomolar concentrations, labeled at ALI+21d)?
**A.** Its value is “effective conversion to MCCs”.

**Q.** And the “ratio MCC number/total luminal cells” value ([1]; semagacestat doses from 500 nM to 31.25 nM, p <0.01 by ANOVA with Dunnett's test)?
**A.** Its value is “significant increases”.

**Q.** And the “body weight vs vehicle controls” value [2]?
**A.** Its value is “no significant difference”.

**Q.** And the MCC cell numbers ([3]; treatment during differentiation (differentiation only ALI+0 to +21d, and continuous))?
**A.** The MCC cell numbers was “increased MCC cell numbers”.

**Q.** And the effect on differentiation ([3]; treatment during proliferation only (ALI-5 to -1d))?
**A.** Its effect on differentiation is “had no effect on differentiation”.

**Q.** And the ciliated cell formation [4]?
**A.** The ciliated cell formation was “induces ciliated cell formation via both apical and basal application”.

**Q.** What about the “percentage of MCCs” value ([5]; after IL-13 (ALI+7 to 14)) of the same compound?
**A.** The value was “increasing the percentage of MCCs”.

**Q.** And the “percentage of mucin positive secretory cells” value ([5]; after IL-13 (ALI+7 to 14))?
**A.** Its value is “decreasing the percentage of mucin positive secretory cells”.

**Q.** And the “percentage of MCCs” value ([5]; controls without IL-13)?
**A.** The value was “increase the percentage off MCCs”.

**Q.** And the “CFTR currents (inhibition of current after CFTRinh172) vs control conditions” value (CFTR [6])?
**A.** The value was “equal to or greater than in control conditions”.

**Q.** And the MCC/total cell ratio [7]?
**A.** Its MCC/total cell ratio is “effective in increasing MCC/total cell ratio”.

**Q.** What about the “CFTR current induced by ETI” value (CFTR [8]) of the same compound?
**A.** Its value is “Neither LY45139 (FIG. 26) nor MK04752 (FIG. 27) impaired the CFTR current”.

**Q.** What about the adverse events ([9]; 100 mg and 140 mg daily) of the same compound?
**A.** Its adverse events is “more adverse events, including skin cancers and infections”.

**Q.** And the cognitive status ([9]; 100 mg and 140 mg daily)?
**A.** Its cognitive status is “did not improve cognitive status”.

**Q.** And the cognitive ability ([9]; patients on the highest dose)?
**A.** Its cognitive ability is “significant worsening of cognitive ability”.

**Q.** What about the adverse events ([10]; 5 mg, 20 mg or 40 mg daily for 14 days) of the same compound?
**A.** The adverse events was “adverse events similar to placebo”.

**Q.** And the “subjects reporting adverse events that may have been drug related” value ([10]; 50 mg daily dose)?
**A.** The value was 2 of 7.
